Results from BigSolDB 2.1.

SMILES: CO[C@@]1(NC(=O)CSCC#N)C(=O)N2C(C(=O)O)=C(CSc3nnnn3C)CS[C@@H]21
- solubility (mole fraction) (in ethanol, 278.15 K): 0.000215
- solubility (mole fraction) (in ethanol, 283.15 K): 0.000282
- solubility (mole fraction) (in ethanol, 288.15 K): 0.000369
- solubility (mole fraction) (in ethanol, 293.15 K): 0.000467
- solubility (mole fraction) (in ethanol, 298.15 K): 0.000596
- solubility (mole fraction) (in ethanol, 303.15 K): 0.000757
- solubility (mole fraction) (in isopropanol, 278.15 K): 4.6e-05
- solubility (mole fraction) (in isopropanol, 283.15 K): 6.16e-05
- solubility (mole fraction) (in isopropanol, 288.15 K): 8.19e-05
- solubility (mole fraction) (in isopropanol, 293.15 K): 0.000107
- solubility (mole fraction) (in isopropanol, 298.15 K): 0.000138
- solubility (mole fraction) (in isopropanol, 303.15 K): 0.000174
- solubility (mole fraction) (in methanol, 278.15 K): 0.00154
- solubility (mole fraction) (in methanol, 283.15 K): 0.00202
- solubility (mole fraction) (in methanol, 288.15 K): 0.00264
- solubility (mole fraction) (in methanol, 293.15 K): 0.00337
- solubility (mole fraction) (in methanol, 298.15 K): 0.00429
- solubility (mole fraction) (in methanol, 303.15 K): 0.00545
- solubility (mole fraction) (in water, 278.15 K): 1.57e-05
- solubility (mole fraction) (in water, 283.15 K): 2.05e-05
- solubility (mole fraction) (in water, 288.15 K): 2.65e-05
- solubility (mole fraction) (in water, 293.15 K): 3.46e-05
- solubility (mole fraction) (in water, 298.15 K): 4.39e-05
- solubility (mole fraction) (in water, 303.15 K): 5.52e-05
